Measured values reported in PubChem BioAssay AID1918943 (Molecular Pharmacology Branch, DTP, NCI, 2023).

System: 855422-203-R-J1-PDC complex spheroid viability
Experiment: Anticancer human tumor 855422-203-R-J1-PDC patient-derived bladder carcinoma cell line growth inhibition
Details: for IC50: curve of first compound; for viability, T/C: stronger effect = lower value
How it was run: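 Drug combinations with the LSD1 inhibitor iadademstat tested on tumor cells co-cultured as spheroids with endothelial cells and mesenchymal stem cells. Concentrations descended in half-log increments from clinical Cmax or 10 microM.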
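Note: drug exposure lasted 7 days starting on day 3 after seeding.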
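Throughout, for viability, T/C: luminescence viability as percent of DMSO vehicle wells = 100%.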

O=C(C=Cc1cccc(S(=O)(=O)Nc2ccccc2)c1)NO + NC1CCC(NC2CC2c2ccccc2)CC1
IC50 (second compound 0.1 µM): 452 nM
IC50 (second compound 0.316 µM): 468 nM
IC50 (second compound 1 µM): 296 nM
IC50 (second compound 3.16 µM): 343 nM
IC50 (second compound 10 µM): 357 nM
viability, T/C (second compound 0.1 µM, first compound 0.00949 µM): 88.3%
viability, T/C (second compound 0.1 µM, first compound 0.03 µM): 88.7%
viability, T/C (second compound 0.1 µM, first compound 0.0949 µM): 91.3%
viability, T/C (second compound 0.1 µM, first compound 0.3 µM): 68.9%
viability, T/C (second compound 0.1 µM, first compound 0.949 µM): 15.2%
viability, T/C (second compound 0.1 µM, first compound 3 µM): 0.2%
viability, T/C (second compound 0.316 µM, first compound 0.00949 µM): 96.1%
viability, T/C (second compound 0.316 µM, first compound 0.03 µM): 88.6%
viability, T/C (second compound 0.316 µM, first compound 0.0949 µM): 80.7%
viability, T/C (second compound 0.316 µM, first compound 0.3 µM): 71.8%
viability, T/C (second compound 0.316 µM, first compound 0.949 µM): 17.4%
viability, T/C (second compound 0.316 µM, first compound 3 µM): 0.2%
viability, T/C (second compound 1 µM, first compound 0.00949 µM): 98%
viability, T/C (second compound 1 µM, first compound 0.03 µM): 90.1%
viability, T/C (second compound 1 µM, first compound 0.0949 µM): 67.7%
viability, T/C (second compound 1 µM, first compound 0.3 µM): 59.2%
viability, T/C (second compound 1 µM, first compound 0.949 µM): 13.4%
viability, T/C (second compound 1 µM, first compound 3 µM): 0.17%
viability, T/C (second compound 3.16 µM, first compound 0.00949 µM): 94%
viability, T/C (second compound 3.16 µM, first compound 0.03 µM): 92%
viability, T/C (second compound 3.16 µM, first compound 0.0949 µM): 81.6%
viability, T/C (second compound 3.16 µM, first compound 0.3 µM): 57.4%
viability, T/C (second compound 3.16 µM, first compound 0.949 µM): 7.23%
viability, T/C (second compound 3.16 µM, first compound 3 µM): 0.14%
viability, T/C (second compound 10 µM, first compound 0.00949 µM): 90.8%
viability, T/C (second compound 10 µM, first compound 0.03 µM): 82.7%
viability, T/C (second compound 10 µM, first compound 0.0949 µM): 78.9%
viability, T/C (second compound 10 µM, first compound 0.3 µM): 58.5%
viability, T/C (second compound 10 µM, first compound 0.949 µM): 5.21%
viability, T/C (second compound 10 µM, first compound 3 µM): 0.59%

CC[C@@]1(O)C(=O)OCc2c1cc1n(c2=O)Cc2cc3c(CN(C)C)c(O)ccc3nc2-1 + NC1CCC(NC2CC2c2ccccc2)CC1
IC50 (second compound 0.1 µM): 7.48 nM
IC50 (second compound 0.316 µM): 6.91 nM
IC50 (second compound 1 µM): 7.51 nM
IC50 (second compound 3.16 µM): 6.75 nM
IC50 (second compound 10 µM): 6.22 nM
viability, T/C (second compound 0.1 µM, first compound 0.000316 µM): 89.9%
viability, T/C (second compound 0.1 µM, first compound 0.001 µM): 93.6%
viability, T/C (second compound 0.1 µM, first compound 0.00316 µM): 82.5%
viability, T/C (second compound 0.1 µM, first compound 0.01 µM): 38.8%
viability, T/C (second compound 0.1 µM, first compound 0.0316 µM): 27.5%
viability, T/C (second compound 0.1 µM, first compound 0.1 µM): 22.9%
viability, T/C (second compound 0.316 µM, first compound 0.000316 µM): 90.9%
viability, T/C (second compound 0.316 µM, first compound 0.001 µM): 83.9%
viability, T/C (second compound 0.316 µM, first compound 0.00316 µM): 77.7%
viability, T/C (second compound 0.316 µM, first compound 0.01 µM): 36.8%
viability, T/C (second compound 0.316 µM, first compound 0.0316 µM): 24.9%
viability, T/C (second compound 0.316 µM, first compound 0.1 µM): 21.2%
viability, T/C (second compound 1 µM, first compound 0.000316 µM): 89.1%
viability, T/C (second compound 1 µM, first compound 0.001 µM): 80%
viability, T/C (second compound 1 µM, first compound 0.00316 µM): 78.5%
viability, T/C (second compound 1 µM, first compound 0.01 µM): 39.9%
viability, T/C (second compound 1 µM, first compound 0.0316 µM): 32.6%
viability, T/C (second compound 1 µM, first compound 0.1 µM): 21.4%
viability, T/C (second compound 3.16 µM, first compound 0.000316 µM): 77.4%
viability, T/C (second compound 3.16 µM, first compound 0.001 µM): 83.5%
viability, T/C (second compound 3.16 µM, first compound 0.00316 µM): 74.5%
viability, T/C (second compound 3.16 µM, first compound 0.01 µM): 37.1%
viability, T/C (second compound 3.16 µM, first compound 0.0316 µM): 25.5%
viability, T/C (second compound 3.16 µM, first compound 0.1 µM): 21.1%
viability, T/C (second compound 10 µM, first compound 0.000316 µM): 79.3%
viability, T/C (second compound 10 µM, first compound 0.001 µM): 79.2%
viability, T/C (second compound 10 µM, first compound 0.00316 µM): 66%
viability, T/C (second compound 10 µM, first compound 0.01 µM): 37.2%
viability, T/C (second compound 10 µM, first compound 0.0316 µM): 26.9%
viability, T/C (second compound 10 µM, first compound 0.1 µM): 15.9%
